Results from patent US6165493A, “"Methods and compositions for decreasing the frequency of HIV, herpesvirus and sexually transmitted bacterial infections"” (New York Blood Center, Inc., priority 1998, dated 2000).
Peptide text beside a SMILES is read from it.

system: HIV-1; test: inhibition of fusion between HIV-1 IIIB infected H9 cells and uninfected MT-2 cells; format: cell-based; settings: Human immunodeficiency virus 1, MT2, 1 h, read-out: Inhibition of Cell Fusion ED50 ± SD (effective dose for 50% inhibition of HIV-1 induced cell fusion); Table 1A; -- = none at 1000 μg/ml

Compound	IC50
CC1=CC(=O)NS(=O)(=O)O1 [Acesulfame Potassium]	> 1000 µg/mL
CCCCCCCCCCCCCCCC(=O)OC[C@H](O)[C@H]1OC(=O)C(O)=C1O [Ascorbyl Palmitate]	> 1000 µg/mL
COC(=O)[C@H](Cc1ccccc1)NC(=O)[C@@H](N)CC(=O)O [Aspartame] (HELM PEPTIDE1{D.F.[CO[*:1]]}$$$$V2.0)	> 1000 µg/mL
O=C(OCc1ccccc1)c1ccccc1 [Benzyl Benzoate]	> 1000 µg/mL
O=[N+]([O-])C(Br)(CO)CO [Bronopol]	> 1000 µg/mL
Cc1cc(C(C)(C)C)c(O)c(C(C)(C)C)c1 [Butylated Hydroxytoluene]	> 1000 µg/mL
CCCCOC(=O)c1ccc(O)cc1 [Butylparaben]	> 1000 µg/mL
Cc1cc(O)ccc1Cl [Chlorocresol]	> 1000 µg/mL
CCCCOC(=O)CCCCCCCCC(=O)OCCCC [Dibutyl Sebacate]	> 1000 µg/mL
CCOC(=O)c1ccc(O)cc1 [Ethylparaben]	> 1000 µg/mL
O=C(NCNC(=O)NC1C(=O)NC(=O)N1CO)NC1C(=O)NC(=O)N1CO (centres unmarked) [Imidurea]	> 1000 µg/mL
Cc1occc(=O)c1O [Maltol]	> 1000 µg/mL
CC1CCC(C(C)C)C(O)C1 (centres unmarked) [Menthol]	> 1000 µg/mL
COC(=O)c1ccc(O)cc1 [Methylparaben]	> 1000 µg/mL
CCCOC(=O)c1cc(O)c(O)c(O)c1 [Propyl Gallate]	> 1000 µg/mL
CC1COC(=O)O1 (centres unmarked) [Propylene Carbonate]	> 1000 µg/mL
CCCOC(=O)c1ccc(O)cc1 [Propylparaben]	> 1000 µg/mL
O=C1NS(=O)(=O)c2ccccc21 [Saccharin]	> 1000 µg/mL
O=S(=O)(O)NC1CCCCC1 [Sodium Cyclamate]	> 1000 µg/mL
CCCCCCCCCCCCCCCCCCOC(=O)/C=C/C(=O)[O-].[Na+] [Sodium Stearyl Fumarate]	> 1000 µg/mL
C/C=C/C=C/C(=O)O [Sorbic Acid]	> 1000 µg/mL
CC(=O)OCC(COC(C)=O)OC(C)=O [Triacetin]	> 1000 µg/mL
COc1cc(C=O)ccc1O [Vanillin]	> 1000 µg/mL

system: HIV-1; test: disintegration of HIV-1 measured by release of p24; parameters: species or system HIV-1 IIIB; settings: 5 minutes at 37° C.
Description: With respect of FIG. 3, serial dilutions of untreated and treated HIV-1 were tested for p24 by ELISA. As a positive control, HIV-1 treated with the detergent NP40 was also tested. The results obtained with the "[…]"-glycerol formulation containing PVP and Crospovidone and N-40 were identical and indicated an 100-fold increase of released p24 antigen, as compared to background levels corresponding to untreated virus. The infectivity of HIV-1 was also eliminated by treatment with the "[…]"-glycerol formulation containing PVP and Crospovidone.
To determine whether or not the CAP Formulations affect the integrity of HIV-1, a preparation of purified virus (strain IIIB; 5 μl; 1.52×10^10 virus particles/ml; Advanced Biotechnologies, Columbia, Md.) was mixed with 45 μl of 0.14 M NaCl and 50 μl of the respective CAP Formulation, each prewarmed to 37° C. After 5 minutes at 37° C., 400 μl of 0.14 M NaCl were added, and the mixture was filtered through a 0.45μ filter prewashed with 0.14 M NaCl, 0.01 M Tris pH 7.2, 0.02 NaN3 (TS). Serial 5-fold dilutions of the filtrate were tested by ELISA for the p24 antigen, as described above. In control experiments, either untreated HIV-1 IIIB or virus treated with the detergent NP40 (final concentration 5 mg/ml; 5 minutes at 37° C.) were equally diluted and tested for the p24 antigen. […]

Compound	increase of released p24 antigen compared to untreated virus
NP40	100 fold

system: HIV-1; test: not given; settings: cited from earlier work

Compound	in vitro inactivation of HIV-1
nonoxynol-9 [N-9]	shown to inactivate in vitro

system: HSV-2; test: not given; settings: cited from earlier work

Compound	in vitro inactivation of HSV-2
nonoxynol-9 [N-9]	shown to inactivate in vitro

system: Chlamydia trachomatis; test: not given; settings: cited from earlier work

Compound	in vitro inactivation of Chlamydia trachomatis
nonoxynol-9 [N-9]	shown to inactivate in vitro

system: not given; test: not given; settings: some N-9 formulations; cited from earlier work

Compound	clinical adverse effects
nonoxynol-9 [N-9]	adverse effects

system: heterosexual HIV-1, gonorrhea and chlamydia transmission; test: not given; settings: one of the N-9 formulations; cited from earlier work

Compound	efficacy in decreasing rate of heterosexual HIV-1, gonorrhea and chlamydia transmission
nonoxynol-9 [N-9]	lack of efficacy
